Measurements from US11178868B2, “Alkynyl-substituted 3-phenylpyrrolidine-2,4-diones and use thereof as herbicides” (Bayer CropScience Aktiengesellschaft, priority 2015, dated 2021).

Key:
Type in all cases: in vivo
Alopecurus myosuroides [1] = experiment: Pre-emergence herbicidal effect; details: scored visually after 3 weeks
Source text: (§1) Seeds of monocotyledonous and dicotyledonous weed plants and crop plants are laid out in wood-fibre pots in sandy loam and covered with soil. The compounds according to the invention formulated in the form of wettable powders (WP) or as emulsion concentrates (EC) are then applied as aqueous suspension or emulsion at a water application rate of 600 to 800 I/ha (converted) with the addition of 0.2% wetting agent to the surface of the covering soil. After the treatment, the pots are placed in a greenhouse and kept under good growth conditions for the trial plants. The damage to the test plants is scored visually after a test period of 3 weeks by comparison with untreated controls (herbicidal activity in percent (%): 100% activity=the plants have died, 0% activity=like control plants).

Avena fatua [2] = experiment: Pre-emergence herbicidal effect; details: scored visually after 3 weeks
Source text: as §1

Cyperus esculentus = experiment: Pre-emergence herbicidal effect; details: scored visually after 3 weeks
Source text: as §1

Echinochloa crus-galli [3] = experiment: Pre-emergence herbicidal effect; details: scored visually after 3 weeks
Source text: as §1

Lolium multiflorum [4] = experiment: Pre-emergence herbicidal effect; details: scored visually after 3 weeks
Source text: as §1

Setaria viridis [5] = experiment: Pre-emergence herbicidal effect; details: scored visually after 3 weeks
Source text: as §1

Setaria viridis [6] = experiment: Post-emergence herbicidal effect; details: assessed visually after about 3 weeks
Procedure: (§2) Seeds of monocotyledonous and dicotyledonous weed and crop plants are laid out in sandy loam in wood-fibre pots, covered with soil and cultivated in a greenhouse under good growth conditions. 2 to 3 weeks after sowing, the test plants are treated at the one-leaf stage. The compounds according to the invention, formulated in the form of wettable powders (WP) or as emulsion concentrates (EC), are then sprayed as aqueous suspension or emulsion at a water application rate of 600 to 800 I/ha (converted) with the addition of 0.2% of wetting agent onto the green parts of the plants. After the test plants have been left to stand in the greenhouse under optimal growth conditions for about 3 weeks, the action of the preparations is assessed visually in comparison to untreated controls (herbicidal action in percent (%): 100% activity=the plants have died, 0% activity=like control plants).

Alopecurus myosuroides [7] = experiment: Post-emergence herbicidal effect; details: assessed visually after about 3 weeks
Procedure: as §2

Avena fatua [8] = experiment: Post-emergence herbicidal effect; details: assessed visually after about 3 weeks
Procedure: as §2

Echinochloa crus-galli [9] = experiment: Post-emergence herbicidal effect; details: assessed visually after about 3 weeks
Procedure: as §2

Lolium multiflorum [10] = experiment: Post-emergence herbicidal effect; details: assessed visually after about 3 weeks
Procedure: as §2

Amaranthus retroflexus = experiment: Post-emergence herbicidal effect; details: assessed visually after about 3 weeks
Procedure: as §2

Polygonum convolvulus = experiment: Post-emergence herbicidal effect; details: 80 g a.i./ha, assessed visually after about 3 weeks
Procedure: as §2

Compound | Herbicidal effect against [%] ALOMY (Alopecurus myosuroides [1]; 80 g a.i./ha) [%] | Herbicidal effect against [%] ALOMY (Alopecurus myosuroides [1]; 320 g a.i./ha) [%] | Herbicidal effect against [%] AVEFA (Avena fatua [2]; 80 g a.i./ha) [%] | Herbicidal effect against [%] AVEFA (Avena fatua [2]; 320 g a.i./ha) [%] | Herbicidal effect against [%] ECHCG (Echinochloa crus-galli [3]; 80 g a.i./ha) [%] | Herbicidal effect against [%] ECHCG (Echinochloa crus-galli [3]; 320 g a.i./ha) [%] | Herbicidal effect against [%] LOLMU (Lolium multiflorum [4]; 80 g a.i./ha) [%] | Herbicidal effect against [%] LOLMU (Lolium multiflorum [4]; 320 g a.i./ha) [%] | Herbicidal effect against [%] SETVI (Setaria viridis [5]; 80 g a.i./ha) [%] | Herbicidal effect against [%] SETVI (Setaria viridis [5]; 320 g a.i./ha) [%] | Herbicidal effect against [%] SETVI (Setaria viridis [6]; 80 g a.i./ha) [%] | Herbicidal effect against [%] ALOMY (Alopecurus myosuroides [7]; 20 g a.i./ha) [%] | Herbicidal effect against [%] ALOMY (Alopecurus myosuroides [7]; 80 g a.i./ha) [%] | Herbicidal effect against [%] AVEFA (Avena fatua [8]; 20 g a.i./ha) [%] | Herbicidal effect against [%] AVEFA (Avena fatua [8]; 80 g a.i./ha) [%] | Herbicidal effect against [%] ECHCG (Echinochloa crus-galli [9]; 20 g a.i./ha) [%] | Herbicidal effect against [%] ECHCG (Echinochloa crus-galli [9]; 80 g a.i./ha) [%] | Herbicidal effect against [%] LOLMU (Lolium multiflorum [10]; 20 g a.i./ha) [%] | Herbicidal effect against [%] LOLMU (Lolium multiflorum [10]; 80 g a.i./ha) [%] | Herbicidal effect against [%] SETVI (Setaria viridis [6]; 20 g a.i./ha) [%] | also measured
CC#Cc1cc(C)c(C2=C(OC(=O)OCC)C3(CCCC(OCC)C3)NC2=O)c(CC)c1 (centres unmarked) [Example P1] | 100 | 100 | 80 | 100 | 100 | 100 | 100 | 100 | 100 | 100 | 100 |  |  |  |  |  |  |  |  |  | Herbicidal effect against [%] CYPES (Cyperus esculentus; 80 g a.i./ha): 100%; Herbicidal effect against [%] CYPES (Cyperus esculentus; 320 g a.i./ha): 100%
CC#Cc1cc(C)c(C2=C(OC(=O)OCC)C3(CCCC(OCCOC)C3)NC2=O)c(CC)c1 (centres unmarked) [Example P13] | 100 | 100 | 100 | 100 | 100 | 100 | 100 | 100 | 100 | 100 | 100 | 100 | 100 | 100 | 100 | 100 | 100 | 100 | 100 | 100 | Herbicidal effect against [%] CYPES (Cyperus esculentus; 320 g a.i./ha): 90%
CC#Cc1cc(C)c(C2=C(OC(=O)OCC)C3(CCCC(OCCOC)C3)NC2=O)c(C)c1 (centres unmarked) [Example P15] | 100 | 100 | 100 | 100 | 100 | 100 | 100 | 100 | 100 | 100 | 100 | 100 | 100 | 100 | 100 | 100 | 100 | 100 | 100 | 100 | Herbicidal effect against [%] AMARE (Amaranthus retroflexus; 20 g a.i./ha): 80%; Herbicidal effect against [%] AMARE (Amaranthus retroflexus; 80 g a.i./ha): 80%; Herbicidal effect against [%] POLCO (Polygonum convolvulus): 80%
CC#Cc1cc(C)c(C2=C(OC(=O)OC)C3(CCCC(OCCOC)C3)NC2=O)c(C)c1 (centres unmarked) [Example P16] | 100 | 100 | 100 | 100 | 100 | 100 | 100 | 100 |  |  | 100 | 100 | 100 | 100 | 100 | 100 | 100 | 100 | 100 | 100 | Herbicidal effect against [%] AMARE (Amaranthus retroflexus; 20 g a.i./ha): 80%; Herbicidal effect against [%] AMARE (Amaranthus retroflexus; 80 g a.i./ha): 80%
